Here are results for 26 compounds from US12583825B2, “Benzo[h]quinazolin-4-amine and thieno[3,2-h]quinazolin-4-amine derivatives for the treatment of cancer” (Redona Therapeutics, Inc., priority 2020, dated 2026).

One assay deals with T1, recombinant human CLK3 (Homo sapiens, UniProt P49761).
T1 construct: purchased Thermo Fisher Scientific PV3826
Description: CLK3 kinase assay (LANCE Ultra). The assay is classed as biochemical. To be noted: 0.5 nM CLK3, 300 μM ATP, 3 hours at 30° C. How it is done:
CLK3 kinase activity was measured using the LANCE® Ultra technology (PerkinElmer) essentially as recommended by the supplier. Briefly, 2.5 μL of test sample at 4× the desired final concentration in 4% DMSO were dispensed into white, low volume, round bottom, 384 well plates (Corning, cat. no. 4512). 5 μL of a mixture containing recombinant human CLK3 (Thermo Fisher Scientific, cat. no. PV3826) and the labeled peptide substrate ULight™-CREBtide (PerkinElmer, cat. no. TRF0107) prepared in 1.33× kinase buffer (Thermo Fisher Scientific, cat. no. PV3189) were then added. Finally, the reactions were started by adding 2.5 μL of a 4× solution of ATP in kinase buffer. The plates were sealed with adhesive foils and incubated for 3 hours at 30° C. in the dark. The final concentrations of CLK3, ULight™—CREBtide, and ATP were 0.5 nM, 50 nM, and 300 μM, respectively. 5 μL of 40 mM EDTA were then added to terminate the reactions. The Eu-anti-phospho-CREB antibody (PerkinElmer, cat. no. TRF0200) diluted in LANCE® detection buffer (PerkinElmer, cat. no. CR97) was then added to a final concentration of 2 nM and the reactions were incubated for 1 hour at room temperature in the dark. The signals were measured using a Synergy 4 reader (BioTek) with a 320/80 nm filter for the excitation and 620/10 nm and 665/8 nm filters for the donor and acceptor emission, respectively. […] IC50 values were calculated by fitting the concentration-response data to a sigmoidal 4-parameter logistic model.
(Time-resolved FRET reads energy transfer from a long-lived donor to a nearby acceptor.)

For a further assay, the system named is MDA-MB-231 cells. Description: MDA-MB-231 proliferation assay. It counts as cell-based. To be noted: Homo sapiens, 72 hours, YO-PRO-1 readout. As to the method: MDA-MB-231 Proliferation Assay
MDA-MB-231 cells were cultivated in DMEM High Glucose (4.5 g/L) with L-Glutamine (BioConcept, cat. no. 1-26F03-I) supplemented with 1% Na-pyruvate (Sigma, cat. no. S8636), 1% Penicillin-Streptomycin (BioConcept, cat. no. 4-01F00H), and 10% FBS (Sigma, cat. no. F9665) using standard techniques. Cells were seeded in black, clear-bottom 384 well plates for tissue culture (Greiner Bio-One, cat. no. 781091) at a density of 750 cells per well in 20 μL medium and the plates were incubated overnight at 37° C. with 5% CO2 prior to treatment. Experimental compounds were serially diluted in DMSO to 200× the desired final concentrations. The solutions were then diluted 1:40 with culture medium and 5 μL aliquots were mixed into the wells containing the cells. The final concentration of DMSO was 0.5%. The plates were incubated for 72 hours and cell numbers were then measured using YO-PRO™-1 Iodide (ThermoFisher Scientific, cat. no. Y3603) essentially as recommended by the manufacturer. […] The plates were incubated at room temperature in the dark for 30 minutes. Fluorescence intensity signals were then measured on a Synergy 4 reader (BioTek) using 485/20 nm and 530/25 nm filters for the excitation and emission, respectively. Relative proliferation values were calculated by normalizing the raw data using DMSO-treated cells (100% proliferation) and the signals obtained from cells that were evaluated at the time of compound addition (0% proliferation). The concentration-response data were fitted to a sigmoidal 4-parameter logistic model with the maximum constrained to 100%.

The structures appear in SMILES notation.

T1 sequence (P49761 whole entry): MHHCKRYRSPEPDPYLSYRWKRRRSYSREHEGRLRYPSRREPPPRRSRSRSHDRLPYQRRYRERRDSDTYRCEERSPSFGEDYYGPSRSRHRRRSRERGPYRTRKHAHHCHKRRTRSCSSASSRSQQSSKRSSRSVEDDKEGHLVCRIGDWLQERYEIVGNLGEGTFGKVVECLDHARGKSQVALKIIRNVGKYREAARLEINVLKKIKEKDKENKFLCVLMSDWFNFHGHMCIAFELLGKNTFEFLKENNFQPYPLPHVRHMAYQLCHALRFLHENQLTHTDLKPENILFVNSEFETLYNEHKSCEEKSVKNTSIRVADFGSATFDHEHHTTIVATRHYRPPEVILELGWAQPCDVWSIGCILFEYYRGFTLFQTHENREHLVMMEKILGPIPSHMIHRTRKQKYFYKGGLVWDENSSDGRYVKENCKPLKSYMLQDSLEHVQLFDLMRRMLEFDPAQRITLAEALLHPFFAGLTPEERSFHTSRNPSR

Consider `CC1(C)/C(=N/O)c2cc(O[C@H]3CC[C@H](N)CC3)ccc2-c2ncnc(N)c21` [Example 2, (6Z)-4-amino-8-(trans-4-aminocyclohexoxy)-5,5-dimethyl-benzo[h]quinazolin-6-one oxime], for which the IC50 at recombinant human CLK3 was 16.6 nM. The GI50 in the assay on MDA-MB-231 cells is 742 nM. Take `CC1(C)/C(=N/OCc2ccccc2)c2cc(O[C@H]3CC[C@H](N)CC3)ccc2-c2ncnc(N)c21` [Example 3, (6Z)-8-(trans-4-aminocyclohexoxy)-6-benzyloxyimino-5,5-dimethyl-benzo[h]quinazolin-4-amine]: the IC50 on recombinant human CLK3 was 200 nM. In the assay with MDA-MB-231 cells, the GI50 worked out at 1960 nM. With `COc1ccc2c(c1)/C(=N\OCC(=O)O)C(C)(C)c1c(N)ncnc1-2` [Example 5, 2-[(Z)-(4-amino-8-methoxy-5,5-dimethyl-benzo[h]quinazolin-6-ylidene)amino]oxyacetic acid], the IC50 on recombinant human CLK3 came out at 227 nM. Consider `COc1ccc2c(c1)/C(=N\OCC(N)=O)C(C)(C)c1c(N)ncnc1-2` [Example 7, 2-[(Z)-(4-amino-8-methoxy-5,5-dimethyl-benzo[h]quinazolin-6-ylidene)amino]oxyacetamide], for which the IC50 on recombinant human CLK3 was found to be 115 nM. As to `COc1ccc2c(c1)/C(=N\OCC(=O)NCCN)C(C)(C)c1c(N)ncnc1-2` [Example 8, N-(2-aminoethyl)-2-[(Z)-(4-amino-8-methoxy-5,5-dimethyl-benzo[h]quinazolin-6-ylidene)amino]oxy-acetamide], the 50% inhibitory concentration (IC50) on recombinant human CLK3 is 73.2 nM. Also, the GI50 in the assay with MDA-MB-231 cells is over 2000 nM. Regarding `COc1ccc2c(c1)/C(=N\O[C@H]1CC[C@@H](N)CC1)C(C)(C)c1c(N)ncnc1-2` [Example 9, (6Z)-6-(cis-4-aminocyclohexoxy)imino-8-methoxy-5,5-dimethyl-benzo[h]quinazolin-4-amine], the IC50 on recombinant human CLK3 worked out at 90.2 nM. Also, the GI50 in the assay with MDA-MB-231 cells was found to be 1050 nM. On to `COc1ccc2c(c1)/C(=N\O[C@H]1CC[C@H](N)CC1)C(C)(C)c1c(N)ncnc1-2` [Example 10, (6Z)-6-(trans-4-aminocyclohexoxy)imino-8-methoxy-5,5-dimethyl-benzo[h]quinazolin-4-amine], for which the IC50 on recombinant human CLK3 amounted to 75.8 nM. Moreover, the 50% growth inhibitory concentration (GI50) with MDA-MB-231 cells was over 2000 nM.

Take `COc1ccc2c(c1)/C(=N\OC[C@H]1CC[C@H](N)CC1)C(C)(C)c1c(N)ncnc1-2` [Example 11, (6Z)-6-[(trans-4-aminocyclohexyl)methoxyimino]-8-methoxy-5,5-dimethyl-benzo[h]quinazolin-4-amine]: the IC50 at recombinant human CLK3 was determined as 437 nM.

Turning to `COc1ccc2c(c1)/C(=N\OC[C@H]1CNC(=O)O1)C(C)(C)c1c(N)ncnc1-2` [Example 12, (5R)-5-[[(Z)-(4-amino-8-methoxy-5,5-dimethyl-benzo[h]quinazolin-6-ylidene)amino]oxymethyl]oxazolidin-2-one], the IC50 at recombinant human CLK3 came out at 129 nM. Besides, the GI50 in the assay on MDA-MB-231 cells was over 2000 nM.

As for `COC(=O)CCO/N=C1\c2cc(O[C@H]3CC[C@H](N)CC3)ccc2-c2ncnc(N)c2C1(C)C` [Example 14, methyl 3-[(Z)-[4-amino-8-(trans-4-aminocyclohexoxy)-5,5-dimethyl-benzo[h]quinazolin-6-ylidene]amino]oxypropanoate], the IC50 at recombinant human CLK3 amounted to 23.9 nM. In addition, the GI50 with MDA-MB-231 cells turned out to be 597 nM. Consider `CC1(C)/C(=N/OCCCO)c2cc(O[C@H]3CC[C@H](N)CC3)ccc2-c2ncnc(N)c21` [Example 15, 3-[(Z)-[4-amino-8-(trans-4-aminocyclohexoxy)-5,5-dimethyl-benzo[h]quinazolin-6-ylidene]amino]oxypropan-1-ol], for which, on recombinant human CLK3, the IC50 stood at 29.8 nM. Moreover, the GI50 in the assay on MDA-MB-231 cells worked out at 714 nM. As for `CCN(CC)CCCO/N=C1\c2cc(O[C@H]3CC[C@H](N)CC3)ccc2-c2ncnc(N)c2C1(C)C` [Example 17, (6Z)-8-(trans-4-aminocyclohexoxy)-6-[3-(diethylamino)propoxyimino]-5,5-dimethyl-benzo[h]quinazolin-4-amine], the IC50 on recombinant human CLK3 stood at 410 nM.

As to `CCO/N=C1\c2cc(O[C@H]3CC[C@H](N)CC3)ccc2-c2ncnc(N)c2C1(C)C` [Example 24, (6Z)-8-(trans-4-aminocyclohexoxy)-6-ethoxyimino-5,5-dimethyl-benzo[h]quinazolin-4-amine], in the assay on MDA-MB-231 cells, the GI50 is 743 nM. Consider `CO/N=C1\c2cc(O[C@H]3CC[C@H](N)CC3)cc(Cl)c2-c2ncnc(N)c2C1(C)C` [Example 39, (6Z)-8-(trans-4-aminocyclohexoxy)-10-chloro-6-methoxyimino-5,5-dimethyl-benzo[h]quinazolin-4-amine], for which the concentration for 50% growth inhibition (GI50) in the assay on MDA-MB-231 cells is over 2000 nM. In the case of `CO/N=C1\c2cc(OC)c(N)cc2-c2ncnc(N)c2C1(C)C` [Example 42, (6Z)-8-methoxy-6-methoxyimino-5,5-dimethyl-benzo[h]quinazoline-4,9-diamine], the GI50 in the assay with MDA-MB-231 cells is over 2000 nM. In the case of `CO/N=C1\c2cc(O[C@H]3CC[C@@H](N)CC3)ccc2-c2ncnc(N)c2C1(C)C` [Example 54, (6Z)-8-(cis-4-aminocyclohexoxy)-6-methoxyimino-5,5-dimethyl-benzo[h]quinazolin-4-amine], the 50% inhibitory concentration (IC50) on recombinant human CLK3 worked out at 1.9 nM. As for `COc1ccc2c(c1)/C(=N\OC[C@@H]1CCNC1)C(C)(C)c1c(N)ncnc1-2` [Example 62, (6Z)-8-methoxy-5,5-dimethyl-6-[[(3R)-pyrrolidin-3-yl]methoxyimino]benzo[h]quinazolin-4-amine], the half-inhibitory concentration (IC50) at recombinant human CLK3 was found to be 372 nM.

As to `COc1ccc2c(c1)/C(=N/OC[C@@H]1CCNC1)C(C)(C)c1c(N)ncnc1-2` [Example 63, (6E)-8-methoxy-5,5-dimethyl-6-[[(3R)-pyrrolidin-3-yl]methoxyimino]benzo[h]quinazolin-4-amine], the IC50 on recombinant human CLK3 was 313 nM. Turning to `C=CCO/N=C1\c2cc(O[C@H]3CC[C@H](N)CC3)ccc2-c2ncnc(N)c2C1(C)C` [Example 64, (6Z)-6-allyloxyimino-8-(trans-4-aminocyclohexoxy)-5,5-dimethyl-benzo[h]quinazolin-4-amine], in the assay with MDA-MB-231 cells, the GI50 was over 2000 nM.

As for `CC(C)O/N=C1\c2cc(O[C@H]3CC[C@H](N)CC3)ccc2-c2ncnc(N)c2C1(C)C` [Example 67, (6Z)-8-(trans-4-aminocyclohexoxy)-6-isopropoxyimino-5,5-dimethyl-benzo[h]quinazolin-4-amine], in the assay with MDA-MB-231 cells, the concentration for 50% growth inhibition (GI50) is over 2000 nM. Regarding `CO/N=C1\c2cc(N(C)C3CCNCC3)ccc2-c2ncnc(N)c2C1(C)C` [Example 69, (6Z)-6-methoxyimino-N8,5,5-trimethyl-N8-(4-piperidyl)benzo[h]quinazoline-4,8-diamine], in the assay on MDA-MB-231 cells, the GI50 was over 2000 nM. `COc1ccc2c(c1)/C(=N\OC[C@H]1CCN(C)C1)C(C)(C)c1c(N)ncnc1-2` [Example 71, (6Z)-8-methoxy-5,5-dimethyl-6-[[(3S)-1-methylpyrrolidin-3-yl]methoxyimino]benzo[h]quinazolin-4-amine]: the IC50 on recombinant human CLK3 amounted to 173 nM. The same measure, in the same setting: as for `CO/N=C1\c2cc(Br)ccc2-c2ncnc(N)c2C1(C)C` [Example 89, (6Z)-8-bromo-6-methoxyimino-5,5-dimethyl-benzo[h]quinazolin-4-amine], the figure is 98.6 nM. As to `CC1(C)/C(=N/OCCOC(F)(F)F)c2cc(O[C@H]3CC[C@@H](N)CC3)ccc2-c2ncnc(N)c21` [Example 105, (6Z)-8-(cis-4-aminocyclohexoxy)-5,5-dimethyl-6-[2-(trifluoromethoxy)ethoxyimino]benzo[h]quinazoline-4-amine], in the assay with MDA-MB-231 cells, the GI50 was determined as 82 nM. The same measure, in the same setting: as for `CC1(C)/C(=N/OCCOc2ccccc2)c2cc(O[C@H]3CC[C@@H](N)CC3)ccc2-c2ncnc(N)c21` [Example 107, (6Z)-8-(cis-4-aminocyclohexoxy)-5,5-dimethyl-6-(2-phenoxyethoxyimino)benzo[h]quinazoline-4-amine], the figure is 319 nM; as for `CC1(C)/C(=N/OCCCc2cccnc2)c2cc(O[C@H]3CC[C@@H](N)CC3)ccc2-c2ncnc(N)c21` [Example 108, (6Z)-8-(cis-4-aminocyclohexoxy)-5,5-dimethyl-6-[3-(3-pyridyl)propoxyimino]benzo[h]quinazoline-4-amine], 942 nM.

A word on the IC50: it is the point on the concentration scale where inhibition reaches its midpoint. The GI50 is the concentration at which growth is held to half of that of the control.
